# Results: patent publication US20240200005A1, “METHOD FOR DEVELOPING AND/OR REPROGRAMMING PLANT CELLULAR OBJECTS” (SCREENSYS GMBH, priority 2021, published 2024)
# Test system: microspores of Brassica napus
# Assay: Dose-response of TSA trigger on growth/reprogramming of microspores in microfluidic compartments (image-based size analysis)
# Type: cell-based
# Settings: for percentage of total microspores larger than 45 μm (multicellular stage): after 3 days
# Text: For the cultivation of the microspores, the desired compartment sequences were generated by application of the system as shown in FIG. 1. The core of the system 2 was a five-channel precision syringe pump 11 (NEMESYS Cetoni GmbH, Germany) which can feed up to five fluids 6a-6e carried in glass syringes 20 (SETonic GmbH, Germany). One channel was used for the delivery of perfluoro-methyldecalin (PP9) as carrier fluid 6/6a, which is immiscible with the other fluids and thus separates the individual aqueous compartments 4 from one another inside the generated compartment 4 sequence. Another channel was used for 1×NLN13 (recipe below) medium 6b to dilute the medium with the microspores 14 and adjust the total volume of the compartments 4, and thus the concentration of the plant cellular objects 14 and the other substances, during formation. Two different trigger solutions 6c, 6d were used in channels three and four. Channel five was used for dosing the cell suspension, i.e. the medium with the plant cellular objects 14, itself. A cell container vial 12 was employed to feed the microspores 14 into the compartment generator 10. For this, a small conical glass vial 12 with a capacity of about 2 ml was used (See FIG. 1). The vial 12 was filled with the microspore suspension, i.e. medium with plant cellular objects 14, and closed airtight and free of air bubbles. The initial microspore density in the vial 12 was about 700.000 microspores/ml.
# By syringe pump-controlled addition of medium 6e into the container 12 the suspended microspores 14 were fed through the container outlet conduit 16, a 0.2 mm ID FEP tube, into the compartment generator 10. ID stands for inner diameter. Instead of medium 6e it is also contemplated to add carrier fluid 6 to the container 12 with the suspended microspores. The individual syringes 20 were connected with the compartment generator 10 via respective conduits 17. Compartments 4 of about 120 nL volume each were formed and forwarded in a 0.5 mm ID PTFE tube as the microfluidic conduit 8 for incubation. A detailed description of the used compartment generator 10 can be found in “Cao J, Richter F, Kastl M, Erdmann J, Burgold C, Dittrich D, Schneider S, Köhler J M, Groß GA (2020) Droplet-Based Screening for the Investigation of Microbial Nonlinear Dose-Response Characteristics System, Background and Examples. Micromachines. 10.3390/mi1106057”, which is incorporated herein in its entirety by reference. For sufficient diffusive aeration during long-time incubation times, PTFE tubes with low wall thickness were used (inner diameter: 0.5 mm, outer diameter: 1.0 mm). Typical flow rate conditions of about 30 μl/min for the aqueous phases, i.e. the sample fluid, i.e. the medium 6b, the medium with the plant cellular objects, and the trigger solutions 6c, 6d, and about 100 μl/min for the embedding phase, i.e. the carrier fluid 6a, were used. […] However, other tube materials and dimensions may be used.
# For a dose-response experiment the Trichostatin A (TSA) was chosen as a trigger. The stimulating effect of TSA on the germination of the microspores 14 was investigated in a concentration range from 0.01 μM up to 5 μM. Therefore, TSA stock solutions of 0.2 μM TSA 6c and 10 μM TSA 6d were used in the syringes 20 for triggers 1 and 2. The application of an appropriate flow rate program yielded the compartment 4 sequence with the desired concentrations of TSA in the compartments 4, as shown in FIG. 2. The resulting compartments 4 were composed of 50% volume microspore suspension, 50%-0% dilution medium 6b and 0-50% of the trigger solution 6c, 6d. Depending on the intended concentration of TSA in the generated compartments 4, either 0.2 μM TSA solution 6c or 10 μM TSA solution 6d was added to the generated compartments 4. The flow rate for the carrier medium 6e, here PP9, was kept constant at 50 μl/min. […]
structure (smiles),measurement,setting,value
"CC(/C=C/C(=O)NO)=C\[C@@H](C)C(=O)c1ccc(N(C)C)cc1 [TSA, Trichostatin A]",percentage of microspores larger than 35 μm,"0.01 μM TSA, after 3 days incubation at 32° C.",about 3%
same,change of percentage of microspores larger than 35 μm,"0.01 μM TSA, after 6 days versus 3 days",increased only marginally
same,percentage of total microspores larger than 45 μm (multicellular stage),0.05 μM TSA,about 1%
same,percentage of total microspores with a diameter of at least 35 μm,"0.05 μM TSA, after 6 days",about 8%
same,percentage of very large microspores (>45 μm),"0.05 μM TSA, after 6 days",about 2%
same,percentage of total microspores larger than 45 μm (multicellular stage),0.1 μM TSA,about 1%
same,percentage of microspores larger than 35 μm,"0.1 μM TSA, after 3 days incubation at 32° C.",~9%
same,percentage of microspores larger than 35 μm (total column),"0.1 μM TSA, after 6 days",11.4%
same,proportion of microspores larger than 45 μm,"0.1 μM TSA, after 6 days",4.4%
same,percentage of total microspores larger than 45 μm (multicellular stage),0.35 μM TSA,about 1%
same,percentage of microspores larger than 35 μm,"0.35 μM TSA, after 3 days incubation at 32° C.",8%
same,percentage of microspores larger than 35 μm,"0.35 μM TSA, after 6 days",11.7%
same,percentage of very large microspores (>45 μm),"0.35 μM TSA, after 6 days",3.8%
same,percentage of microspores larger than 35 μm,"0.5 μM TSA, after 3 days incubation at 32° C.",about 4.4%
same,percentage of total microspores with a diameter of at least 35 μm,"0.5 μM TSA, after 6 days",about 8%
same,percentage of very large microspores (>45 μm),"0.5 μM TSA, after 6 days",about 2%
same,percentage of microspores larger than 35 μm,"1 μM TSA, after 3 days incubation at 32° C.",~4%
same,green portion of column (microspores larger than 45 μm),"1 μM TSA, after 6 days",approximately 1.7%
same,percentage of microspores larger than 35 μm (total column height),"1 μM TSA, after 6 days",6.4%
same,percentage of microspores larger than 35 μm,"2 μM TSA, after 3 days incubation at 32° C.",~0%
same,percentage of microspores larger than 35 μm,"2 μM TSA, after 6 days",about 1.3%
same,percentage of microspores larger than 35 μm,"5 μM TSA, after 3 days incubation at 32° C.",0%
same,growth of microspores,"5 μM TSA, after 6 days",without any recognizable growth
same,percentage of microspores larger than 35 μm,"0.05 M TSA (so in the source), after 3 days incubation at 32° C.",approximately 7.6%
same,lethal dose,"microspores, no recognizable growth after 6 days",5 µM
